Where a SMILES comes first, the peptide text is derived from it. [ ]: non-standard residue; d: D form. The star is where a group is joined. X1 = Cc1ccc(Nc2ncc3c(n2)N(C)C(=O)N(c2cc(C(=O)*)ccc2C)C3)cn1; Aib = CC(C)(N)C(=O)O
What was measured:
Experiment in all cases: kinase selectivity profiling
Assay type in all cases: biochemical
Details in all cases: 10µM ATP, read-out: % inhibition (relative to DMSO)
[1] = biological target: T1, c-MET (Homo sapiens, UniProt P08581)
T1 construct: purchased Reaction Biology Corp
Protocol: (§1) Full panel kinase profiling and kinase IC50 measurement were performed by using Reaction Biology Corp. (San Diego, USA).

[2] = biological target: T2, FES/FPS (Homo sapiens, UniProt P07332)
T2 construct: purchased Reaction Biology Corp
Protocol: as §1

[3] = biological target: T3, GRK6 (Homo sapiens, UniProt P43250)
T3 construct: purchased Reaction Biology Corp
Protocol: as §1

[4] = biological target: T4, Lck (Homo sapiens, UniProt P06239)
T4 construct: purchased Reaction Biology Corp
Protocol: as §1

[5] = biological target: T5, KHS/MAP4K5 (Homo sapiens, UniProt Q9Y4K4)
T5 construct: purchased Reaction Biology Corp
T5 sequence (Q9Y4K4 whole entry): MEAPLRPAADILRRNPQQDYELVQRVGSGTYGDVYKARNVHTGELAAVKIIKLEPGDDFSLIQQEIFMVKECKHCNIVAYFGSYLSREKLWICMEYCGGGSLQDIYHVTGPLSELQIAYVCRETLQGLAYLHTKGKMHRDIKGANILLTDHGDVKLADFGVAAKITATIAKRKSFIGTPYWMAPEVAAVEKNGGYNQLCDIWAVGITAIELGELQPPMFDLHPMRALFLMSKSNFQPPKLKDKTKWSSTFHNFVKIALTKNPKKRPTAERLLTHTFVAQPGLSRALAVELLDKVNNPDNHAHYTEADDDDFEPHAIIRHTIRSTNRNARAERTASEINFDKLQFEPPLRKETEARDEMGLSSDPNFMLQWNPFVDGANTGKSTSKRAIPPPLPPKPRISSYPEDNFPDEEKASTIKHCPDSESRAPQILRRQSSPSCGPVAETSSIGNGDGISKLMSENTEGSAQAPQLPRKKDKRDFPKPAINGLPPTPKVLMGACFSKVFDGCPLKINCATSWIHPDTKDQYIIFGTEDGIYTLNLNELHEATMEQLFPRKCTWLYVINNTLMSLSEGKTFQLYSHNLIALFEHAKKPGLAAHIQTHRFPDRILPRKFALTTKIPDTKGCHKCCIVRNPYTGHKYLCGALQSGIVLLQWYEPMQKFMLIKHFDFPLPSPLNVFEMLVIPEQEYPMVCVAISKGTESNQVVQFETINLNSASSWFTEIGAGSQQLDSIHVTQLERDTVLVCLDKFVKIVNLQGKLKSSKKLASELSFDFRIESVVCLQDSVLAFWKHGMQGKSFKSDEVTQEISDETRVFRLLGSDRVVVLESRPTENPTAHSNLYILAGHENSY
Protocol: as §1

[6] = biological target: T6, RSK4 (Homo sapiens, UniProt Q9UK32)
T6 construct: purchased Reaction Biology Corp
Protocol: as §1

[7] = biological target: T7, JAK1 (Homo sapiens, UniProt P23458)
T7 construct: purchased Reaction Biology Corp
Protocol: as §1

[8] = biological target: T8, HCK (Homo sapiens, UniProt P08631)
T8 construct: purchased Reaction Biology Corp
Protocol: as §1

[9] = biological target: T9, TIE2/TEK (Homo sapiens, UniProt Q02763)
T9 construct: purchased Reaction Biology Corp
T9 sequence (Q02763 23-1124): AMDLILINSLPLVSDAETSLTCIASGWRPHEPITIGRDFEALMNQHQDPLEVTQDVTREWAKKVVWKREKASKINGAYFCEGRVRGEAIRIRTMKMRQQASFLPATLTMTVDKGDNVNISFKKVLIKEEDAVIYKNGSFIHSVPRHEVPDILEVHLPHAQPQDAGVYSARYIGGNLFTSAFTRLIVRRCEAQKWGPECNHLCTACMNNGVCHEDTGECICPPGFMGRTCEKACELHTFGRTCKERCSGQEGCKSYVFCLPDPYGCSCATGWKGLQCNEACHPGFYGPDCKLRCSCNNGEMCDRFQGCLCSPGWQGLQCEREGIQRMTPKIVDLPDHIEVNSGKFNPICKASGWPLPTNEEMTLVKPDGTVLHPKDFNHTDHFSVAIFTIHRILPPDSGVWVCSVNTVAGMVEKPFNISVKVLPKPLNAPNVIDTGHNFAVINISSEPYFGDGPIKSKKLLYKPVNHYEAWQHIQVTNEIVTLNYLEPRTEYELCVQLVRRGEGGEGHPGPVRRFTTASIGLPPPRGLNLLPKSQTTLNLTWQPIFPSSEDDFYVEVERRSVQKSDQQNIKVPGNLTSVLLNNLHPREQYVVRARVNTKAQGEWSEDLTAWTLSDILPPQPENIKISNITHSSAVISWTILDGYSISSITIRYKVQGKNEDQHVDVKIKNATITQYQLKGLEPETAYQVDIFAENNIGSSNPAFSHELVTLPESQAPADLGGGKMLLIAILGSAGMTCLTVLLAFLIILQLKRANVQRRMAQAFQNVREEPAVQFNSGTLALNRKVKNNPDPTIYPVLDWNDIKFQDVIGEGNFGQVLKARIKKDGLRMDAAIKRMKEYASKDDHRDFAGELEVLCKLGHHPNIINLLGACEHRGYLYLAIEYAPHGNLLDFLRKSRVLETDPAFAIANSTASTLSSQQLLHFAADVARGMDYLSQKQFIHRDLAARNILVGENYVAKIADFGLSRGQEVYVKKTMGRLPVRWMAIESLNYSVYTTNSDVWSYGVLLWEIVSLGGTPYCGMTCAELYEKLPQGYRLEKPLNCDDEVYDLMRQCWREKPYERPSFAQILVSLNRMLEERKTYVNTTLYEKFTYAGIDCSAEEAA
Protocol: as §1

[10] = biological target: T10, RET (Homo sapiens, UniProt P07949)
T10 construct: purchased Reaction Biology Corp
Protocol: as §1

[11] = biological target: T11, AKT1 (Homo sapiens, UniProt P31749)
T11 construct: purchased Reaction Biology Corp
Protocol: as §1

[12] = biological target: T12, BMX/ETK (Homo sapiens, UniProt P51813)
T12 construct: purchased Reaction Biology Corp
Protocol: as §1

[13] = biological target: T13, TSSK2 (Homo sapiens, UniProt Q96PF2)
T13 construct: purchased Reaction Biology Corp
Protocol: as §1

[14] = biological target: T14, ACK1 (Homo sapiens, UniProt Q07912)
T14 construct: purchased Reaction Biology Corp
Protocol: as §1

[15] = biological target: T15, Abl1 (Homo sapiens, UniProt P00519)
T15 construct: purchased Reaction Biology Corp
Protocol: as §1

[16] = biological target: T16, FGFR1 (Homo sapiens, UniProt P11362)
T16 construct: purchased Reaction Biology Corp
Protocol: as §1

[17] = biological target: T17, ALK3/BMPR1A (Homo sapiens, UniProt P36894)
T17 construct: purchased Reaction Biology Corp
Protocol: as §1

[18] = biological target: T18, STK21/CIT (Homo sapiens, UniProt O14578)
T18 construct: purchased Reaction Biology Corp
Protocol: as §1

[19] = biological target: T19, p70S6Kb/RPS6KB2 (Homo sapiens, UniProt Q9UBS0)
T19 construct: purchased Reaction Biology Corp
Protocol: as §1

[20] = biological target: T20, SGK3/SGKL (Homo sapiens, UniProt Q96BR1)
T20 construct: purchased Reaction Biology Corp
Protocol: as §1

[21] = biological target: T21, RSK1 (Homo sapiens, UniProt Q15418)
T21 construct: purchased Reaction Biology Corp
Protocol: as §1

[22] = biological target: T22, PAK3 (Homo sapiens, UniProt O75914)
T22 construct: purchased Reaction Biology Corp
Protocol: as §1

[23] = biological target: T23, DMPK2 (Homo sapiens, UniProt Q6DT37)
T23 construct: purchased Reaction Biology Corp
Protocol: as §1

[24] = biological target: T24, MAPKAPK2 (Homo sapiens, UniProt P49137)
T24 construct: purchased Reaction Biology Corp
T24 sequence (P49137 whole entry): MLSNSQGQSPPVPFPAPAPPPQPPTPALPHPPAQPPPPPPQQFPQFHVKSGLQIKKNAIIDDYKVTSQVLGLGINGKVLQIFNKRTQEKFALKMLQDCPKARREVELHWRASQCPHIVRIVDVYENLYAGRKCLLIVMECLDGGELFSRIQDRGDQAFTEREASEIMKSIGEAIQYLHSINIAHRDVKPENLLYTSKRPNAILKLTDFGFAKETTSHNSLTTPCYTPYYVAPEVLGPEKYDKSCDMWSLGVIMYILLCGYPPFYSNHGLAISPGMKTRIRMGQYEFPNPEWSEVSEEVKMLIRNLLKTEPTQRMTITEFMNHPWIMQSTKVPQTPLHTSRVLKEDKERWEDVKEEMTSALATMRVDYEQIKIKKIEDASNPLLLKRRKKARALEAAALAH
Protocol: as §1

[25] = biological target: T25, FER (Homo sapiens, UniProt P16591)
T25 construct: purchased Reaction Biology Corp
Protocol: as §1

[26] = biological target: T26, STK39/STLK3 (Homo sapiens, UniProt Q9UEW8)
T26 construct: purchased Reaction Biology Corp
Protocol: as §1

[27] = biological target: T27, TYRO3/SKY (Homo sapiens, UniProt Q06418)
T27 construct: purchased Reaction Biology Corp
Protocol: as §1

[28] = biological target: T28, LATS1 (Homo sapiens, UniProt O95835)
T28 construct: purchased Reaction Biology Corp
Protocol: as §1

[29] = biological target: T29, CAMK2d (Homo sapiens, UniProt Q13557)
T29 construct: purchased Reaction Biology Corp
Protocol: as §1

[30] = biological target: T30, PAK2 (Homo sapiens, UniProt Q13177)
T30 construct: purchased Reaction Biology Corp
T30 sequence (Q13177 whole entry): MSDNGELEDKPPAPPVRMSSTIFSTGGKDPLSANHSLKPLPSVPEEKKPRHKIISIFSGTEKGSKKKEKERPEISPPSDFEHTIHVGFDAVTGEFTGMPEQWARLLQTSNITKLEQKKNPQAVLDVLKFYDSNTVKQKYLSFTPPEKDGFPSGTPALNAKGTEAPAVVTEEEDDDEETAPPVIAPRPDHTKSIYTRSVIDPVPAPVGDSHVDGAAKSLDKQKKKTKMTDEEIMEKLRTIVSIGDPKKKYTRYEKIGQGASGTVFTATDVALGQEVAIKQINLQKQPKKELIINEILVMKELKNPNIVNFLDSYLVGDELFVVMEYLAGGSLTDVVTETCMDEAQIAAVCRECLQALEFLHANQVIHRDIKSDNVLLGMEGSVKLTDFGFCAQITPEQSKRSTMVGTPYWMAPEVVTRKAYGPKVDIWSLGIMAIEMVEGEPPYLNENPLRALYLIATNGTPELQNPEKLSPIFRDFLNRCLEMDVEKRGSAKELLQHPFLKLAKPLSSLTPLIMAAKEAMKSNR
Protocol: as §1

[31] = biological target: T31, NEK1 (Homo sapiens, UniProt Q96PY6)
T31 construct: purchased Reaction Biology Corp
Protocol: as §1

[32] = biological target: T32, PDGFRb (Homo sapiens, UniProt P09619)
T32 construct: purchased Reaction Biology Corp
Protocol: as §1

[33] = biological target: T33, ERK7/MAPK15 (Homo sapiens, UniProt Q8TD08)
T33 construct: purchased Reaction Biology Corp
Protocol: as §1

[34] = biological target: T34, ZAK/MLTK (Homo sapiens, UniProt Q9NYL2)
T34 construct: purchased Reaction Biology Corp
Protocol: as §1

[35] = biological target: T35, FRK/PTK5 (Homo sapiens, UniProt P42685)
T35 construct: purchased Reaction Biology Corp
Protocol: as §1

[36] = biological target: T36, MEKK1 (Homo sapiens, UniProt Q13233)
T36 construct: purchased Reaction Biology Corp
T36 sequence (Q13233 whole entry): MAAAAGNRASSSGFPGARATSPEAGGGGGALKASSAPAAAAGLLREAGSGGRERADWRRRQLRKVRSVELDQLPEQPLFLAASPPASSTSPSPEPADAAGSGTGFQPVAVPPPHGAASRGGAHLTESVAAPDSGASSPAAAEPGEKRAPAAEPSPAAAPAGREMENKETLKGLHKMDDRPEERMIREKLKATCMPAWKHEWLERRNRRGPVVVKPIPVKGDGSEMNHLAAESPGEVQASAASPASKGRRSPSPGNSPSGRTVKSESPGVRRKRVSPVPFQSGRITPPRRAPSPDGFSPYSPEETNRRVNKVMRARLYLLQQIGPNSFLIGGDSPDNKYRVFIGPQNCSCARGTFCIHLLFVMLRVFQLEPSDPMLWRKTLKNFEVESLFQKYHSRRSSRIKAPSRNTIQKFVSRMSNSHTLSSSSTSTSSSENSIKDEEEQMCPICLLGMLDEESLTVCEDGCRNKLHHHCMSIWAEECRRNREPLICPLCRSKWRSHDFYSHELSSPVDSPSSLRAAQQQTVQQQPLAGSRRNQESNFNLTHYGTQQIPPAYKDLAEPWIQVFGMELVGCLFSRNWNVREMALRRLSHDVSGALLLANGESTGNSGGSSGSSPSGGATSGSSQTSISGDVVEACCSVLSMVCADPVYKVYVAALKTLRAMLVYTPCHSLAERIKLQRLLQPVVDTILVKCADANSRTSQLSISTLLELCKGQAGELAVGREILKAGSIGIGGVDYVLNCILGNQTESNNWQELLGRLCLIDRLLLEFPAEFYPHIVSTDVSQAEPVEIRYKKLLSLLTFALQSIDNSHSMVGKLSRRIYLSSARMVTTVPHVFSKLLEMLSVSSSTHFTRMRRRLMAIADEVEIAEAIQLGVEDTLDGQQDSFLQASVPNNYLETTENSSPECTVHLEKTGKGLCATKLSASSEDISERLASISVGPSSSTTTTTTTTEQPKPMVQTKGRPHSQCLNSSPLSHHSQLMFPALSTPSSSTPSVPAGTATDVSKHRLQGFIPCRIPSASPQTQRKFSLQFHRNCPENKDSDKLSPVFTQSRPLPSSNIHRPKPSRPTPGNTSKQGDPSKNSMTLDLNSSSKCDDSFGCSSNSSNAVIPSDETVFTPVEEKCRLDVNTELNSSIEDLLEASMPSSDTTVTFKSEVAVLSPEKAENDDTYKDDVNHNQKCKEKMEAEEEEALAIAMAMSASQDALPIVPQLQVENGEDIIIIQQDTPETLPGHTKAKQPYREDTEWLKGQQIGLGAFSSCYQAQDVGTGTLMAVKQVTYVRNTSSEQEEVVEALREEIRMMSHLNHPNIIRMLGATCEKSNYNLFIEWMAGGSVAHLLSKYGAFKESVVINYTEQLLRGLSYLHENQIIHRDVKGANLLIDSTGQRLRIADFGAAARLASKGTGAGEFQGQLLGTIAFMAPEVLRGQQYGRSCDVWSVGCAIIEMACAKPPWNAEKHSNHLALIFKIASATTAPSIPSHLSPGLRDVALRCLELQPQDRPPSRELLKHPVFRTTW
Protocol: as §1

[37] = biological target: T37, CTK/MATK (Homo sapiens, UniProt P42679)
T37 construct: purchased Reaction Biology Corp
Protocol: as §1

[38] = biological target: T38, WNK1 (Homo sapiens, UniProt Q9H4A3)
T38 construct: purchased Reaction Biology Corp
Protocol: as §1

[39] = biological target: T39, ZAP70 (Homo sapiens, UniProt P43403)
T39 construct: purchased Reaction Biology Corp
Protocol: as §1

[40] = biological target: T40, HIPK4 (Homo sapiens, UniProt Q8NE63)
T40 construct: purchased Reaction Biology Corp
T40 sequence (Q8NE63 whole entry): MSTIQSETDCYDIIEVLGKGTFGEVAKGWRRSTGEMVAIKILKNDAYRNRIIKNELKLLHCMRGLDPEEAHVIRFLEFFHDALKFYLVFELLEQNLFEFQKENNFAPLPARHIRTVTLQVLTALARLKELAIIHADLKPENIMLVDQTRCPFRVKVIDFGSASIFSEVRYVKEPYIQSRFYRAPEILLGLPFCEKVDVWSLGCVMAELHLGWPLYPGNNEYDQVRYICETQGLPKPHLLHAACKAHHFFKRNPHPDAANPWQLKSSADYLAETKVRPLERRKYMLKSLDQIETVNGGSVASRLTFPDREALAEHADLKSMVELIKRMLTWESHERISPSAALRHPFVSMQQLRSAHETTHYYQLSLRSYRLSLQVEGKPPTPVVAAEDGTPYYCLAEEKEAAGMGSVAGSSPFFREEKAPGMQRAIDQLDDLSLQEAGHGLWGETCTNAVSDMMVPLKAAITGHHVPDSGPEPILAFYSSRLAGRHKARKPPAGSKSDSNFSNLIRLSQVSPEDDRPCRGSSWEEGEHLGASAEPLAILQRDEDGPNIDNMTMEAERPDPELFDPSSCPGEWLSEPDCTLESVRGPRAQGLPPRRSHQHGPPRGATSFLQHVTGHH
Protocol: as §1

[41] = biological target: T41, EPHA5 (Homo sapiens, UniProt P54756)
T41 construct: purchased Reaction Biology Corp
Protocol: as §1

[42] = biological target: T42, CK2a (Homo sapiens, UniProt P68400)
T42 construct: purchased Reaction Biology Corp
Protocol: as §1

[43] = biological target: T43, STK38L/NDR2 (Homo sapiens, UniProt Q9Y2H1)
T43 construct: purchased Reaction Biology Corp
Protocol: as §1

Cc1ccc(Nc2ncc3c(n2)N(C)C(=O)N(c2cc(C(=O)N[C@H](C(=O)N4CCC[C@H]4C(=O)NC(C)(C)C(=O)N[C@@H](CC(C)C)C(=O)N(C)C)C(C)C)ccc2C)C3)cn1 [7a, (S)-N-(1-(((S)-1-(dimethylamino)-4-methyl-1-oxopentan-2-yl)amino)-2-methyl-1-oxopropan-2-yl)-1-((4-methyl-3-(1-methyl-7-((6-methylpyridin-3-yl)amino)-2-oxo-1,4-dihydropyrimido[4,5-d]pyrimidin-3(2H)-yl)benzoyl)-L-valyl)pyrrolidine-2-carboxamide] (X1-VP[Aib]L-NMe2)
inhibition at 1 µM [1]: 14% | inhibition at 1 µM [2]: 18% | inhibition at 1 µM [3]: 4% | inhibition at 1 µM [4]: 94% | inhibition at 1 µM [5]: 23% | inhibition at 1 µM [6]: 0% | inhibition at 1 µM [7]: 9% | inhibition at 1 µM [8]: 38% | inhibition at 1 µM [9]: 0% | inhibition at 1 µM [10]: 9% | inhibition at 1 µM [11]: 8% | inhibition at 1 µM [12]: 73% | inhibition at 1 µM [13]: 0% | inhibition at 1 µM [14]: 0% | inhibition at 1 µM [15]: 63% | inhibition at 1 µM [16]: 37% | inhibition at 1 µM [17]: 3% | inhibition at 1 µM [18]: 0% | inhibition at 1 µM [19]: 0% | inhibition at 1 µM [20]: 6% | inhibition at 1 µM [21]: 17% | inhibition at 1 µM [22]: 0% | inhibition at 1 µM [23]: 0% | inhibition at 1 µM [24]: 4% | inhibition at 1 µM [25]: 0% | inhibition at 1 µM [26]: 0% | inhibition at 1 µM [27]: 1% | inhibition at 1 µM [28]: 4% | inhibition at 1 µM [29]: 0% | inhibition at 1 µM [30]: 0% | inhibition at 1 µM [31]: 0% | inhibition at 1 µM [32]: 48% | inhibition at 1 µM [33]: 3% | inhibition at 1 µM [34]: 14% | inhibition at 1 µM [35]: 15% | inhibition at 1 µM [36]: 3% | inhibition at 1 µM [37]: 10% | inhibition at 1 µM [38]: 0% | inhibition at 1 µM [39]: 0% | inhibition at 1 µM [40]: 1% | inhibition at 1 µM [41]: 23% | inhibition at 1 µM [42]: 5% | inhibition at 1 µM [43]: 4%

Source: PMC9067983, “Identification of highly selective type II kinase inhibitors with chiral peptidomimetic tails” (Journal of Enzyme Inhibition and Medicinal Chemistry, 2022)
